pIC50: −log10 of the molar value.
Tests used:
SMARCA2^BD protein = target: T1, SMARCA2^BD protein (Homo sapiens, UniProt P51531, I1395R); test: Fluorescence polarization (FP) detection, SMARCA2 bromodomain; assay type: binding; settings: probe 10 nM, SMARCA2^BD protein 50 nM, 2 h room temperature
T1 construct: His-SMARCA2^BD(S1377-Q1486); His6 (leader mhhhhhhgslvpr\gs, with thrombin-type site lvpr\gs) (N); made in house
Experimental: (§1) • 1. Perform a fluorescence polarization assay on with the target protein, which has been expressed and purified from prokaryotic cells to a purity of >90%.
(§2) • 2. The fluorescence polarization assay was conducted in a 384-well plate (3820, Corning) protected from light, with an excitation wavelength of 485 nm and an emission wavelength of 520 nm. Fluorescent probe was used in the experiment, and the buffer solution was 25 mM Bis-Tris, 0.01% Triton X-100, at pH 7.5. The final concentration of DMSO after the addition of the compound was less than 1%. The final detection volume per well was 125 μl, containing 50 μl of the fluorescent probe (final concentration 10 nM), 50 μl of SMARCA2^BD protein (final concentration 50 nM) or 50 μl of SMARCA4^BD protein (final concentration 120 nM), and 25 μl of the compound at various concentrations (final concentration ranging from 0 to 100 µM with a 3-fold dilution, a total of 11 concentrations). A control group (probe+protein), a probe control group (probe only), and a blank control group (buffer only) were set up. The fluorescence values were read by an ELISA reader r (SPARK m1000 pro, TECAN) after incubation for 2 h at room temperature on a shaker. The polarization value mP is calculated based on the fluorescence values in parallel and perpendicular directions of each well, and then the inhibition rate is calculated based on the mP value:
(§3) The inhibition rate data was plotted in GraphPad Prism 8.0 software and the IC50 value was calculated.

SMARCA4^BD protein = target: T2, SMARCA4^BD protein (Homo sapiens, UniProt P51532); test: Fluorescence polarization (FP) detection, SMARCA4 bromodomain; assay type: binding; settings: probe 10 nM, SMARCA4^BD protein 120 nM, 2 h room temperature
T2 construct: His6 (leader mhhhhhhgslvpr\gs, with thrombin-type site lvpr\gs) (N); made in house
Experimental: as §1, §2, §3

A549 cell line = test: Cell proliferation assay (CCK-8), A549; assay type: cell-based; settings: Homo sapiens, A549, 96 h; Table 1; 4 days incubation with compound; read-out: A549 cell line CCK8 IC50
Experimental: (§4) The antiproliferative activity of the compounds on the cells was determined by CCK-8 kit (C0039, Biotronik). A549 (CCL-185™, ATCC) and MCF-7 (HTB-22™, ATCC) cells were incubated with F-12K medium (30-2004, ATCC) containing 10% FBS (10099141C, Gibco) and DMEM medium (11995065, Gibco) containing 10% FBS, respectively, at 37° C. with 5% CO2 until entering the logarithmic growth phase. In 96-well plates, 2800 cells (A549) or 1000 cells (MCF-7) was added in a volume of 100 μL, the blank control group was 100 μL of medium. After one day of incubation at 37° C., 5% CO2, 100 μL of compounds of different concentrations were added (final concentration of […], 3-fold dilution, a total of 9 concentrations), and the control group was added to 100 μL of medium and continued to be incubation for 4 days (A549) or 7 days (MCF-7). According to the manufacturer's instructions, 20 μL of CCK-8 solution was added. Finally, the absorbance at 450 nm was measured using a microplate reader (SPARK m1000 pro, TECAN) after incubation at 37° C. for 2 h (A549) or 4 h (MCF-7).
(§5) The inhibition rate of the compounds on the cells at different concentrations was calculated based on the OD values of each well, and the inhibition rate data were plotted in GraphPad Prism 8.0 software to calculate the IC50 values.

MCF-7 cell line = test: Cell proliferation assay (CCK-8), MCF-7; assay type: cell-based; settings: Homo sapiens, MCF7, 168 h; Table 1; 7 days incubation with compound; read-out: MCF-7 cell line CCK8 IC50
Experimental: as §4, §5

Hela cell line = test: Cell proliferation assay (CCK-8), Hela; assay type: cell-based; settings: Homo sapiens, 72 h, Table 2, 3 days incubation with compound, read-out: Hela cell line CCK8 IC50
Experimental: (§6) The antiproliferative activity of the compounds on the cells was determined by CCK-8 kit (C0039, Biotronik). Hela (CCL-2™, ATCC) and SW1573 (CRL-2170™, ATCC) cells were incubated with DMEM medium (11995065, Gibco) containing 10% FBS (10099141C, Gibco) at 37° C. with 5% CO2 until entering the logarithmic growth phase. In 96-well plates, 2500 cells (Hela) or 800 cells (SW1573) were added in a volume of 100 μL, the blank control group was 100 μL of medium, and after one day of incubation at 37° C., 5% CO2, 100 μL of compounds of different concentrations were added (final concentration of […], 3-fold dilution, a total of 9 concentrations), and the control group was added to 100 μL of medium and continued to incubate for 3 days (Hela) or 7 days (SW1573). Then 20 μL of CCK-8 solution were added. Finally, the absorbance at 450 nm was measured using a microplate reader (SPARK m1000 pro, TECAN) after incubation at 37° C. for 1.5 h (Hela) or 2.5 h (SW1573).
as §5

SW1573 cell line = test: Cell proliferation assay (CCK-8), SW1573; assay type: cell-based; settings: Homo sapiens, SW1573, 168 h; Table 2; 7 days incubation with compound; read-out: SW1573 cell line CCK8 IC50
Experimental: as §6, §5

148 cancer cells = settings: background, literature; cited from earlier work
[1] = aryl ketone linked to tertiary amines; limited intracellular exposure time; literature; cited from earlier work

T1 sequence (P51531 1377-1486 isoform P51531-2 I1395R): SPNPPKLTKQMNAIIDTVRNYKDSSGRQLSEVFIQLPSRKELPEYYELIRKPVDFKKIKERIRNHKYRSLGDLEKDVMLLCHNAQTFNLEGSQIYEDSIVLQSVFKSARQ
T2 sequence (P51532 1448-1575): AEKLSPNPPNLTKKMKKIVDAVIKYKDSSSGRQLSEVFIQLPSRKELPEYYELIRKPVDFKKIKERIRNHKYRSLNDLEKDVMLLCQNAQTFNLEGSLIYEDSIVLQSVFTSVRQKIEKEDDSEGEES

Structure (SMILES)	pIC50 (SMARCA2^BD protein; Table 1)	pIC50 (SMARCA4^BD protein; Table 1)	pIC50 (A549 cell line)	pIC50 (MCF-7 cell line)	pIC50 (SMARCA2^BD protein; Table 2)	pIC50 (SMARCA4^BD protein; Table 2)	pIC50 (Hela cell line)	pIC50 (SW1573 cell line)	inhibitory activity in 148 cancer cells (148 cancer cells)	chemical stability [1]
Nc1nnc(-c2ccccc2O)cc1C#CC1CCNCC1 [Compound 1c, 2-(6-amino-5-(piperidin-4-ylethynyl)pyridazin-3-yl)phenol]	6.72	6.52	4.60	4.92						
Nc1nnc(-c2ccccc2O)cc1C#CC1CCNC1 (stereo not shown) [Compound 2c, 2-(6-Amino-5-(pyrrolidin-3-ylethynyl)pyridazin-3-yl)phenol]	6.48	6.55	5.14	5.33						
Nc1nnc(-c2ccccc2O)cc1C#CC1CNC1 [Compound 3c, 2-(6-amino-5-(azetidinyl-3-ethylenylidene)pyridazin-3-yl)phenol]	6.32	6.24	4.14	4.51						
Nc1nnc(-c2ccccc2O)cc1C#CC1CC2(CNC2)C1 [Compound 4c, 2-(5-((2-Azaspiro[3.3]hept-6-yl)ethynyl)-6-aminopyridazin-3-yl)phenol]	6.72	6.82	4.80	4.91						
Nc1nnc(-c2ccccc2O)cc1C#CC1CCC2(CC1)CNC2 [Compound 5c, 2-(5-((2-Azaspiro[3.5]nonan-7-yl)ethynyl)-6-aminopyridazin-3-yl)phenol]	6.89	6.89	4.81	5.12						
Nc1nnc(-c2ccccc2O)cc1C#CC1CCC2(CCNCC2)CC1 [Compound 6c, 2-(5-((3-Azaspiro[5.5]undecan-9-yl)ethynyl)-6-aminopyridazin-3-yl)phenol]	6.70	6.82	4.87	5.43						
Nc1nnc(-c2ccccc2O)cc1C#CC1CC2(CCNCC2)C1 [Compound 10c, 2-(5-((7-Azaspiro[3.5]nonan-2-yl)ethynyl)-6-aminopyridazin-3-yl)phenol]	6.72	6.85	4.83	5.15						
O=C(/C=C/N1C[C@H]2C[C@@H]1CN2c1ccccn1)c1ccccc1O [PFI-3]									did not show significant inhibitory activity	poor chemical stability

The next lines start with results.

pIC50 (SMARCA2^BD protein; Table 1)	pIC50 (SMARCA4^BD protein; Table 1)	pIC50 (A549 cell line)	pIC50 (MCF-7 cell line)	pIC50 (SMARCA2^BD protein; Table 2)	pIC50 (SMARCA4^BD protein; Table 2)	pIC50 (Hela cell line)	pIC50 (SW1573 cell line)	Structure (SMILES)	inhibitory activity in 148 cancer cells (148 cancer cells)	chemical stability [1]
				6.72	6.68	4.60	4.88	COC1(C#Cc2cc(-c3ccccc3O)nnc2N)CCC(N2CCCC2)CC1 (stereo not shown) [Compound 15, 2-(6-amino-5-((1-methoxy-4-(pyrrolidin-1-yl)cyclohexyl)ethynyl)pyridazin-3-yl)phenol]		
				5.96	< 5.43	4.18	4.00	COc1ccc(C#Cc2cc(-c3ccccc3O)nnc2N)cc1 [Compound 17, 2-(6-amino-5-((4-methoxyphenyl)ethynyl)pyridazin-3-yl)phenol]		
				6.77	6.92	4.41	4.04	CN(C)[C@H]1[C@@H]2CN(c3cc(-c4ccccc4O)nnc3N)C[C@@H]21 [Compound 20, 2-(6-amino-5-((1R,5S,6s)-6-(dimethylamino)-3-azabicyclo[3.1.0]hex-3-yl)pyridazin-3-yl)phenol]		
				6.89	6.60	4.16	< 4.00	CC(=O)N[C@H]1[C@@H]2CN(c3cc(-c4ccccc4O)nnc3N)C[C@@H]21 [Compound 21, N-((1R,5S,6s)-3-(3-amino-6-(2-hydroxyphenyl)pyridazin-4-yl)-3-azabicyclo[3.1.0]hexan-6-yl)acetamide]		
6.15	6.28	< 4.00	4.13			< 4.00	< 4.00	CC(=O)N1CCN(c2cc(-c3ccccc3O)nnc2N)CC1 [Control compound, reference compound]		
